Key:
S. aureus Newman = assay: fitness (endpoint OD595 vs no drug) (fraction); higher = more growth
How it was run: (§1)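 Fitness was defined as the optical density at the transition into stationary phase relative to the robust mean of no-drug control wells. Values were capped at 1. Cultures were started at OD595 0.01 in 384-well plates (30 µl, or 55 µl for S. pneumoniae) in TSB, LB Lennox or CY at 37 °C. OD595 was recorded every 30 min over 14 h, with the first reading subtracted as background.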

S. aureus DSM 20231 [1] = assay: Bliss interaction score (quartile over a dose matrix) (fitness difference); higher = more antagonism (negative = synergy)
How it was run: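 Fitness was derived from optical density at entry into stationary phase, divided by the robust mean of the no-drug wells on the same plate. That reading was taken as OD595, and the ratio was capped at 1. Single-drug fitness was inferred from the combination data. The Bliss score, observed fitness minus the expected product of single-drug fitness, was summarised as quartiles over technical, biological and donor/recipient replicates.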

S. aureus DSM 20231 [2] = assay: fitness (endpoint OD595 vs no drug) (fraction); higher = more growth
How it was run: as §1

S. pneumoniae D39V = assay: as above
How it was run: as §1
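For Bliss interaction score (quartile over a dose matrix) in this document: first quartile when negative (synergy) and third quartile when positive (antagonism).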

CC1(C)S[C@@H]2[C@H](NC(=O)[C@H](N)c3ccc(O)cc3)C(=O)N2[C@H]1C(=O)O [Amoxicillin] + CC1(C)S[C@@H]2[C@H](NC(=O)Cc3ccccc3)C(=O)N2[C@H]1C(=O)O [Penicillin G]
fitness, S. aureus Newman
Conditions | first compound 0.0625 µg/mL | first compound 0.125 µg/mL | first compound 0.25 µg/mL
partner 0.0195 µg/mL | 0.845 | 0.855 | –
partner 0.039 µg/mL | 0.878 | 0.833 | 0.797
partner 0.078 µg/mL | 0.796 | 0.801 | 0.807

CC1(C)S[C@@H]2[C@H](NC(=O)[C@H](N)c3ccc(O)cc3)C(=O)N2[C@H]1C(=O)O [Amoxicillin] + CC(=O)Oc1cccc2c1C(=O)c1c(OC(C)=O)cc(C(=O)O)cc1C2=O [Diacerein]
Conditions | Bliss interaction score
S. aureus DSM 20231 [1] | -0.192

CC1(C)S[C@@H]2[C@H](NC(=O)[C@H](N)c3ccc(O)cc3)C(=O)N2[C@H]1C(=O)O [Amoxicillin] + CC(=O)Oc1ccccc1C(=O)O [Acetylsalicylic acid]
fitness
Conditions | first compound 0.0008 µg/mL | first compound 0.0015 µg/mL | first compound 0.003 µg/mL | first compound 0.0625 µg/mL | first compound 0.125 µg/mL | first compound 0.25 µg/mL | first compound 0.5 µg/mL
S. aureus DSM 20231 [2], partner 250 µg/mL | – | – | – | 0.511 | 0.448 | 0.0498 | 0.0014
S. aureus DSM 20231 [2], partner 500 µg/mL | – | – | – | 0.449 | 0.395 | 0.05 | 0.0115
S. aureus DSM 20231 [2], partner 1000 µg/mL | – | – | – | 0.144 | 0.284 | 0.0643 | 0.0095
S. pneumoniae D39V, partner 250 µg/mL | 0.958 | 0.975 | 0.919 | – | – | – | –
S. pneumoniae D39V, partner 500 µg/mL | 0.939 | 0.923 | 0.905 | – | – | – | –
S. pneumoniae D39V, partner 1000 µg/mL | 0.774 | 0.896 | 0.865 | – | – | – | –

S. pneumoniae D39V, first compound 0.006 µg/mL, one replicate
Conditions | fitness
partner 250 µg/mL | 0.465
partner 500 µg/mL | 0.507
partner 1000 µg/mL | 0.483

CC1(C)S[C@@H]2[C@H](NC(=O)[C@H](N)c3ccc(O)cc3)C(=O)N2[C@H]1C(=O)O [Amoxicillin] + CC/C(=C(\c1ccccc1)c1ccc(OCCN(C)C)cc1)c1ccccc1 [Tamoxifene]
Conditions | Bliss interaction score
S. aureus DSM 20231 [1] | -0.148

CC1(C)S[C@@H]2[C@H](NC(=O)[C@H](N)c3ccc(O)cc3)C(=O)N2[C@H]1C(=O)O [Amoxicillin] + CCN(CC)CCOc1ccc(C(=C(Cl)c2ccccc2)c2ccccc2)cc1 [Clomiphene]
Conditions | Bliss interaction score
S. aureus DSM 20231 [1] | -0.255

CC1(C)S[C@@H]2[C@H](NC(=O)[C@H](N)c3ccc(O)cc3)C(=O)N2[C@H]1C(=O)O [Amoxicillin] + CN(C)[C@@H]1C(O)=C(C(N)=O)C(=O)[C@@]2(O)C(O)=C3C(=O)c4c(O)ccc(Cl)c4[C@@](C)(O)[C@H]3C[C@@H]12 [Chlortetracycline]
fitness
Conditions | partner 0.012 µg/mL | partner 0.024 µg/mL | partner 0.048 µg/mL | partner 0.375 µg/mL | partner 0.75 µg/mL | partner 1.5 µg/mL
S. aureus DSM 20231 [2], first compound 0.0625 µg/mL | 0.421 | 0.169 | 0.0806 | – | – | –
S. aureus DSM 20231 [2], first compound 0.125 µg/mL | 0.236 | 0.127 | 0.0782 | – | – | –
S. aureus DSM 20231 [2], first compound 0.25 µg/mL | 0.0422 | 0.0199 | 0.0289 | – | – | –
S. aureus DSM 20231 [2], first compound 0.5 µg/mL | 0.0037 | 0.0085 | 0.0227 | – | – | –
S. pneumoniae D39V, first compound 0.0008 µg/mL | – | – | – | 0.0877 | 0.0924 | 0.0983
S. pneumoniae D39V, first compound 0.0015 µg/mL | 0.845 | 0.854 | 0.887 | 0.119 | 0.0947 | 0.123
S. pneumoniae D39V, first compound 0.003 µg/mL | 0.808 | 0.804 | 0.85 | 0.0652 | 0.045 | 0.0882

one replicate
Conditions | fitness
S. aureus DSM 20231 [2], first compound 0.125 µg/mL, partner 0.006 µg/mL | 0.402
S. aureus DSM 20231 [2], first compound 0.25 µg/mL, partner 0.006 µg/mL | 0.052
S. aureus DSM 20231 [2], first compound 0.5 µg/mL, partner 0.006 µg/mL | 0
S. pneumoniae D39V, first compound 0.0008 µg/mL, partner 0.012 µg/mL | 0.904
S. pneumoniae D39V, first compound 0.0008 µg/mL, partner 0.024 µg/mL | 0.844
S. pneumoniae D39V, first compound 0.0008 µg/mL, partner 0.048 µg/mL | 0.853
S. pneumoniae D39V, first compound 0.006 µg/mL, partner 0.012 µg/mL | 0.482
S. pneumoniae D39V, first compound 0.006 µg/mL, partner 0.024 µg/mL | 0.45
S. pneumoniae D39V, first compound 0.006 µg/mL, partner 0.048 µg/mL | 0.378

CC1(C)S[C@@H]2[C@H](NC(=O)[C@H](N)c3ccc(O)cc3)C(=O)N2[C@H]1C(=O)O [Amoxicillin] + CO[C@@]12[C@H](COC(N)=O)C3=C(C(=O)C(C)=C(N)C3=O)N1C[C@@H]1N[C@@H]12 [Mitomycin C]
Conditions | fitness
S. aureus DSM 20231 [2], first compound 0.0625 µg/mL, partner 0.0156 µg/mL | 0.522
S. aureus DSM 20231 [2], first compound 0.0625 µg/mL, partner 0.0312 µg/mL | 0.467
S. aureus DSM 20231 [2], first compound 0.0625 µg/mL, partner 0.0625 µg/mL | 0.31
S. aureus DSM 20231 [2], first compound 0.125 µg/mL, partner 0.0156 µg/mL | 0.359
S. aureus DSM 20231 [2], first compound 0.125 µg/mL, partner 0.0312 µg/mL | 0.226
S. aureus DSM 20231 [2], first compound 0.125 µg/mL, partner 0.0625 µg/mL | 0.0925
S. aureus DSM 20231 [2], first compound 0.25 µg/mL, partner 0.0156 µg/mL | 0.0215
S. aureus DSM 20231 [2], first compound 0.25 µg/mL, partner 0.0312 µg/mL | 0.0317
S. aureus DSM 20231 [2], first compound 0.25 µg/mL, partner 0.0625 µg/mL | 0.0251
S. aureus DSM 20231 [2], first compound 0.5 µg/mL, partner 0.0156 µg/mL | 0.0035
S. aureus DSM 20231 [2], first compound 0.5 µg/mL, partner 0.0312 µg/mL | 0.0009
S. aureus DSM 20231 [2], first compound 0.5 µg/mL, partner 0.0625 µg/mL | 0.0008
S. aureus Newman, first compound 0.0625 µg/mL, partner 0.0156 µg/mL | 0.67
S. aureus Newman, first compound 0.0625 µg/mL, partner 0.0312 µg/mL | 0.646
S. aureus Newman, first compound 0.0625 µg/mL, partner 0.0625 µg/mL | 0.502
S. aureus Newman, first compound 0.125 µg/mL, partner 0.0156 µg/mL | 0.714
S. aureus Newman, first compound 0.125 µg/mL, partner 0.0312 µg/mL | 0.649
S. aureus Newman, first compound 0.125 µg/mL, partner 0.0625 µg/mL | 0.465
S. aureus Newman, first compound 0.25 µg/mL, partner 0.0312 µg/mL | 0.627
S. pneumoniae D39V, first compound 0.0008 µg/mL, partner 0.001075 µg/mL | ≥ 1
S. pneumoniae D39V, first compound 0.0008 µg/mL, partner 0.00215 µg/mL | 0.895
S. pneumoniae D39V, first compound 0.0008 µg/mL, partner 0.0043 µg/mL | 0.799
S. pneumoniae D39V, first compound 0.0015 µg/mL, partner 0.001075 µg/mL | 0.994
S. pneumoniae D39V, first compound 0.0015 µg/mL, partner 0.002 µg/mL | 0.778
S. pneumoniae D39V, first compound 0.0015 µg/mL, partner 0.00215 µg/mL | 0.876
S. pneumoniae D39V, first compound 0.0015 µg/mL, partner 0.004 µg/mL | 0.836
S. pneumoniae D39V, first compound 0.0015 µg/mL, partner 0.0043 µg/mL | 0.816
S. pneumoniae D39V, first compound 0.0015 µg/mL, partner 0.008 µg/mL | 0.674
S. pneumoniae D39V, first compound 0.003 µg/mL, partner 0.001075 µg/mL | 0.938
S. pneumoniae D39V, first compound 0.003 µg/mL, partner 0.002 µg/mL | 0.702
S. pneumoniae D39V, first compound 0.003 µg/mL, partner 0.00215 µg/mL | 0.832
S. pneumoniae D39V, first compound 0.003 µg/mL, partner 0.004 µg/mL | 0.728
S. pneumoniae D39V, first compound 0.003 µg/mL, partner 0.0043 µg/mL | 0.761
S. pneumoniae D39V, first compound 0.003 µg/mL, partner 0.008 µg/mL | 0.617

fitness, S. pneumoniae D39V, one replicate
Conditions | partner 0.002 µg/mL | partner 0.004 µg/mL | partner 0.008 µg/mL
first compound 0.0008 µg/mL | 0.785 | 0.79 | 0.739
first compound 0.006 µg/mL | 0.269 | 0.349 | 0.17
